{
  "source": "ChEMBL document CHEMBL6153026",
  "about": "“Small-Molecule Modulators Targeting Coactivator-Associated Arginine Methyltransferase 1 (CARM1) as Therapeutic Agents for Cancer Treatment: Current Medicinal Chemistry Insights and Emerging Opportunities” (J Med Chem, 2025)",
  "key": {"[1]": {"molecular_target": "T1, Histone-arginine methyltransferase CARM1 (Homo sapiens, UniProt Q86X55)", "T1 sequence (Q86X55 whole entry)": "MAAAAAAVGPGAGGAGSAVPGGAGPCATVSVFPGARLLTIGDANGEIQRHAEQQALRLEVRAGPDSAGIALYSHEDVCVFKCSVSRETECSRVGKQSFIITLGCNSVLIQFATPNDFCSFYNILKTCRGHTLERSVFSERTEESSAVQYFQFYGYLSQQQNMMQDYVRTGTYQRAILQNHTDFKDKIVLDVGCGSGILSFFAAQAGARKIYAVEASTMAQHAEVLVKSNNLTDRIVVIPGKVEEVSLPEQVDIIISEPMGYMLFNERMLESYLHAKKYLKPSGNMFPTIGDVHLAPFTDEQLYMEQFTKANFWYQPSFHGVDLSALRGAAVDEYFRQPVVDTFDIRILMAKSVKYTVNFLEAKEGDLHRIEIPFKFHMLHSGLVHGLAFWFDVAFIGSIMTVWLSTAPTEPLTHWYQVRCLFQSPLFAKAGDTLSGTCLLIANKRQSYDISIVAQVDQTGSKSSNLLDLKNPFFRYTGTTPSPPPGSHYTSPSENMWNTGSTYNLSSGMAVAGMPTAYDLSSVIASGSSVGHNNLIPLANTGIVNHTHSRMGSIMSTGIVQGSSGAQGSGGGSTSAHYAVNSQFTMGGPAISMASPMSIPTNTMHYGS", "experiment": "Inhibition of GST-tagged CARM1 (unknown origin) extracted form Escherichia coli BL21 (DE3) by MTase-Glo reagent based luminometer analysis"}, "MCF7": {"system": "MCF7", "experiment": "Cytotoxicity against human MCF7 cells assessed as reduction in cell viability by MTS assay", "format": "functional, cell-based"}, "[2]": {"molecular_target": "Protein arginine N-methyltransferase 6 (Homo sapiens, UniProt Q96LA8)", "sequence (Q96LA8 whole entry)": "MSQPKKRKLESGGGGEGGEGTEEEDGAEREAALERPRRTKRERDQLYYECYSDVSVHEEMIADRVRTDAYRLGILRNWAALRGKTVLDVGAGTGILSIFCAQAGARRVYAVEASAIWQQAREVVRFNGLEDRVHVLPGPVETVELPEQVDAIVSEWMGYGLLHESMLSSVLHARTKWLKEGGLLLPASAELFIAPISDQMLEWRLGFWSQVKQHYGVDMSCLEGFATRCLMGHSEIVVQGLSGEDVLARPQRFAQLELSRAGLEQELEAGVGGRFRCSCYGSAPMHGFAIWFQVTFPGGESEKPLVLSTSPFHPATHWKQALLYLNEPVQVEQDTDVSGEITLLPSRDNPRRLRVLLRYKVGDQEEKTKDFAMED", "experiment": "Inhibition of PRMT6 (unknown origin) by scintillation proximity assay"}, "[3]": {"molecular_target": "Protein arginine N-methyltransferase 3 (Homo sapiens, UniProt O60678)", "sequence (O60678 whole entry)": "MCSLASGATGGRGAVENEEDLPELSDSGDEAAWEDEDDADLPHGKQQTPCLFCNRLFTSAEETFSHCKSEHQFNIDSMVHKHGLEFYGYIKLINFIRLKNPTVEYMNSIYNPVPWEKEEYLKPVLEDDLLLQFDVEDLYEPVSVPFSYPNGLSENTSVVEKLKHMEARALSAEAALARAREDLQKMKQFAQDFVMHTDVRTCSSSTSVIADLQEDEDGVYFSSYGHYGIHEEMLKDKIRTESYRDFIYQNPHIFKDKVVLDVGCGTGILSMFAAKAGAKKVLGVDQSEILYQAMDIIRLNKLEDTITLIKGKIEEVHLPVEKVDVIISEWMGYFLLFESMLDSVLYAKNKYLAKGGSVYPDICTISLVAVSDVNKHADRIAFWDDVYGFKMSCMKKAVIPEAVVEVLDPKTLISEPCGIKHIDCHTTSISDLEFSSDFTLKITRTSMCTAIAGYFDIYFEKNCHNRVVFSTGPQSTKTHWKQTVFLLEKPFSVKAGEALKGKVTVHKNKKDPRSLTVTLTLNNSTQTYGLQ", "experiment": "Inhibition of PRMT3 (unknown origin)"}, "[4]": {"molecular_target": "Protein arginine N-methyltransferase 5 (Homo sapiens, UniProt O14744)", "sequence (O14744 whole entry)": "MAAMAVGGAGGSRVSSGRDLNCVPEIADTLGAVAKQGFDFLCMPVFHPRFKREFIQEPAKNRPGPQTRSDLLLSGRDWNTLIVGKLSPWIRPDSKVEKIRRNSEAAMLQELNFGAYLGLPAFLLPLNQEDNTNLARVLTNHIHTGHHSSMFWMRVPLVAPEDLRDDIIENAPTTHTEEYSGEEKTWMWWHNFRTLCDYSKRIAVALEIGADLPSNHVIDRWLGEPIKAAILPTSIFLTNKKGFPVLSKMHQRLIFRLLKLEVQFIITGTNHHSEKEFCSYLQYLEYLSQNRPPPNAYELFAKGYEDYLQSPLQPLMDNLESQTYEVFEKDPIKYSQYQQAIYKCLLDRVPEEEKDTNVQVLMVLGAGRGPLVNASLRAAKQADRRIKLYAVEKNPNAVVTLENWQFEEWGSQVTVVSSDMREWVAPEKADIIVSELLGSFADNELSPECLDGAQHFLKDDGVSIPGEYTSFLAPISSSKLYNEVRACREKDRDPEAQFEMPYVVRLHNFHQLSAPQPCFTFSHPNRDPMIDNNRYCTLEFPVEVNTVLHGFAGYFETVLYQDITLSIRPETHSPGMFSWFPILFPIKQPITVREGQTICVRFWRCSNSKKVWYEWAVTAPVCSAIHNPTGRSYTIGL", "experiment": "Inhibition of PRMT5 (unknown origin)"}, "[5]": {"molecular_target": "T1, Histone-arginine methyltransferase CARM1", "experiment": "Inhibition of CARM1 (unknown origin)"}, "ASPC1": {"system": "ASPC1", "experiment": "Antitumor activity in human ASPC1 cells xenografted in BALB/c nude mouse assessed as tumor growth inhibition at 100 mg/kg, relative to control", "format": "functional", "design": "scale not given: the % may be the effect or the level left"}, "[6]": {"experiment": "Lipophilicity, logP of compound", "format": "physicochemical", "settings": "octanol/water"}, "[7]": {"molecular_target": "T1, Histone-arginine methyltransferase CARM1", "experiment": "Inhibition of human N-terminal 6xHis-tagged CARM1 catalytic domain (140 to 480 residues) using histone H3 as substrate and SAM as cofactor by radiometric HotSpot assay"}, "DU-145": {"system": "DU-145", "experiment": "Antiproliferative activity against human DU-145 cells assessed as reduction in cell viability incubated for 72 hrs by MTT assay", "format": "functional, cell-based", "settings": "DU-145, 72 h"}, "[8]": {"molecular_target": "T1, Histone-arginine methyltransferase CARM1", "experiment": "Inhibition of C-terminal His-tagged human CARM1 catalytic domain (135 to 479 residues) extracted from Escherichia coli BL21 CodonPlus (DE3)-RIL cells using (H3(3-31)) as substrate by enzymatic assay"}, "Homo sapiens": {"species_on_record": "Homo sapiens", "experiment": "Selectivity ratio of IC50 for human PRMT6 to IC50 for human PRMT4"}, "[9]": {"molecular_target": "T1, Histone-arginine methyltransferase CARM1", "experiment": "Inhibition of PRMT4 (unknown origin)"}, "MV4-11": {"system": "MV4-11", "experiment": "Antiproliferative activity against human MV4-11 cells assessed as reduction in cell viability", "format": "functional, cell-based"}},
  "data": [
    {"smiles": "CNCC(=O)N1CCOc2c(O)cc(-c3cccc(Cl)c3)cc2C1", "values": [
      {"measurement": "IC50", "setting": "[1]", "value": 42.2, "unit": "µM"},
      {"measurement": "IC50", "setting": "MCF7", "value": 8.26, "unit": "µM"}
    ]},
    {"smiles": "NCCN1CCC(Cc2ccccc2)CC1", "values": [
      {"measurement": "IC50", "setting": "[2]", "value": 0.3, "unit": "µM"}
    ]},
    {"smiles": "Nc1ncnc2c1ncn2[C@@H]1O[C@H](CSCC[C@H](N)C(=O)O)[C@@H](O)[C@H]1O", "note": "[S-ADENOSYLHOMOCYSTEINE]", "values": [
      {"measurement": "IC50", "setting": "[3]", "value": "< 0.005", "unit": "µM"}
    ]},
    {"smiles": "NC(=O)[C@@H](N)CCCNCNCCCSC[C@H]1O[C@H](n2cnc3c(N)ncnc32)[C@H](O)[C@@H]1O", "values": [
      {"measurement": "IC50", "setting": "[4]", "value": 0.00042, "unit": "µM"}
    ]},
    {"smiles": "N=C(NCCCN(CCNC(=O)NCc1ccccc1)C[C@H]1O[C@@H](n2cnc3c(N)ncnc32)[C@H](O)[C@@H]1O)Nc1cccc(Br)c1", "values": [
      {"measurement": "IC50", "setting": "[5]", "value": "< 0.001", "unit": "µM"}
    ]},
    {"smiles": "CNC[C@@H](O)COc1ccc(Cl)c(-c2nc(-c3c(C)noc3C)c(C)c(N3CC4(CCN(C(=O)OC)CC4)C3)n2)c1", "values": [
      {"measurement": "Activity", "setting": "ASPC1", "value": 52, "unit": "%"}
    ]},
    {"smiles": "CCOC(=O)c1cc(C(=O)NCc2ccccc2CCC(F)(F)F)n(-c2cccc(NC(=O)[C@H](C)N)c2)c1", "values": [
      {"measurement": "IC50", "setting": "[5]", "value": 0.78, "unit": "µM"},
      {"measurement": "logP", "setting": "[6]", "value": 4.48}
    ]},
    {"smiles": "C[C@H](N)C(=O)NCc1cccc(-n2cc(C(F)(F)F)cc2C(=O)NCc2ccccc2)c1", "values": [
      {"measurement": "IC50", "setting": "[5]", "value": 7.23, "unit": "µM"},
      {"measurement": "logP", "setting": "[6]", "value": 3.8}
    ]},
    {"smiles": "C[S+](CC[C@H](N)C(=O)[O-])C[C@H]1O[C@@H](n2cnc3c(N)ncnc32)[C@H](O)[C@@H]1O", "note": "(stereo partly drawn) [ADEMETIONINE]", "values": [
      {"measurement": "IC50", "setting": "[5]", "value": 0.0028, "unit": "µM"}
    ]},
    {"smiles": "COC1CCC(CCNC(=O)[C@H](CC[C@H](CNCc2ccccc2)C[C@H]2O[C@@H](n3cnc4c(N)ncnc43)[C@H](O)[C@@H]2O)NC(=O)CC(C)(C)C2=C(C)C(=O)C(C)=C(C)C2=O)CC1", "note": "(stereo partly drawn)", "values": [
      {"measurement": "IC50", "setting": "[7]", "value": 0.043, "unit": "µM"}
    ]},
    {"smiles": "CNCCNCc1cccc(-c2nc(Nc3cccc(OCCCCCCC(=O)NO)c3)c(C)c(-c3ccnc4[nH]ccc34)n2)c1", "values": [
      {"measurement": "IC50", "setting": "DU-145", "value": "< 1", "unit": "µM"}
    ]},
    {"smiles": "NCCCN(CCCNc1ccccn1)C[C@@H]1O[C@H](n2cnc3c(N)ncnc32)[C@@H](O)[C@H]1O", "values": [
      {"measurement": "IC50", "setting": "[8]", "value": 1.14, "unit": "µM"}
    ]},
    {"smiles": "C[C@H](N)C(=O)Nc1ccc2c(c1)c(-c1cccc(S(=O)(=O)N(C)C)c1)cn2C", "values": [
      {"measurement": "IC50", "setting": "[5]", "value": "< 0.002", "unit": "µM"},
      {"measurement": "Ratio IC50", "setting": "Homo sapiens", "value": "> 500"}
    ]},
    {"smiles": "OCCNCCNCc1ccccc1OCc1ccc(Cl)cc1Cl", "values": [
      {"measurement": "IC50", "setting": "[5]", "value": 42.4, "unit": "µM"}
    ]},
    {"smiles": "Nc1ncnc2c1ncn2[C@H]1O[C@@H](CN(CCCNc2ccccn2)CC[C@H](N)C(=O)O)[C@H](O)[C@@H]1O", "values": [
      {"measurement": "IC50", "setting": "[8]", "value": 1.11, "unit": "µM"}
    ]},
    {"smiles": "C[C@H](N)C(=O)Nc1ccc2[nH]nc(-c3cccc(S(=O)(=O)N(C)C)c3)c2c1", "values": [
      {"measurement": "IC50", "setting": "[5]", "value": 0.5, "unit": "µM"},
      {"measurement": "IC50", "setting": "[9]", "value": 0.06, "unit": "µM"}
    ]},
    {"smiles": "CNCCN(C)Cc1ccccc1OCc1cccc(Cl)c1Cl", "values": [
      {"measurement": "IC50", "setting": "MV4-11", "value": 4.55, "unit": "µM"}
    ]},
    {"smiles": "C[C@H](N)C(=O)Nc1ccc2[nH]cc(-c3cccc(S(C)(=O)=O)c3)c2c1", "values": [
      {"measurement": "Ratio IC50", "setting": "Homo sapiens", "value": 197}
    ]}
  ]
}
